{"source": "ChEMBL document CHEMBL3991949", "about": "“Inhibition of DCPS” (2009)", "key": {"m7GpppX diphosphatase [1]": {"biological_target": "T1, m7GpppX diphosphatase (Mus musculus, UniProt Q9DAR7)", "T1 sequence (Q9DAR7 whole entry)": "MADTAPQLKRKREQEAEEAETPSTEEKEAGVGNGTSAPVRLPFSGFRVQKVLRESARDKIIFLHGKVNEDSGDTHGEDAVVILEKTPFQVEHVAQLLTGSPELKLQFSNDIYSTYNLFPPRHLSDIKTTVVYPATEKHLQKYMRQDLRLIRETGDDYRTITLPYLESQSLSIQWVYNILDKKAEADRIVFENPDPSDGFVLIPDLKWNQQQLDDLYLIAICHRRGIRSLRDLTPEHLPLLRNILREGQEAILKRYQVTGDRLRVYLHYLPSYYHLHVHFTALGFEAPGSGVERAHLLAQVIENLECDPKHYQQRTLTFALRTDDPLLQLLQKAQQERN", "assay": "Inhibition of DcpS in human SMN2 promoter driven mouse NSC-34 cells assessed as increase in SMN2 mRNA expression after 18 hrs by RT-PCR analysis"}, "[2]": {"biological_target": "T2, m7GpppX diphosphatase (Homo sapiens) (UniProt Q96C86)", "T2 sequence (whole entry)": "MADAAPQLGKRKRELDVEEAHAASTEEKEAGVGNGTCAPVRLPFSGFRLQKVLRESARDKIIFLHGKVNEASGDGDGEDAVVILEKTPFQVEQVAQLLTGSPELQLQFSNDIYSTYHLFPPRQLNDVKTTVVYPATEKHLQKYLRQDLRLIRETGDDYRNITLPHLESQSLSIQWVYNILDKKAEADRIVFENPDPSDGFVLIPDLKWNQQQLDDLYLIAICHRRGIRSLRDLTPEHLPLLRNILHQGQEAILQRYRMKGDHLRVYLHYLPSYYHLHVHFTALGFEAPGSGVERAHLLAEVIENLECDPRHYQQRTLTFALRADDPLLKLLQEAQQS", "assay": "Inhibition of recombinant flag-tagged DcpS (unknown origin) decapping activity assessed as hydrolysis of m7GpppG to m7G at 200 nM using unlabeled cap structure as substrate after 30 secs by PEI cellulose thin-layer chromatographic assay (reference value: 62%)", "parameters": "scale not given: the % may be the effect or the level left"}, "[3]": {"biological_target": "T2, m7GpppX diphosphatase (Homo sapiens)", "assay": "Inhibition of recombinant flag-tagged DcpS (unknown origin) decapping activity assessed as hydrolysis of m7GpppG to m7G at 8 nM using unlabeled cap structure as substrate after 30 secs by PEI cellulose thin-layer chromatographic assay (reference value: 62%)", "parameters": "scale not given: the % may be the effect or the level left"}, "[4]": {"biological_target": "T2, m7GpppX diphosphatase (Homo sapiens)", "assay": "Inhibition of recombinant flag-tagged DcpS (unknown origin) decapping activity assessed as hydrolysis of m7GpppG to m7G at 40 nM using unlabeled cap structure as substrate after 30 secs by PEI cellulose thin-layer chromatographic assay (reference value: 62%)", "parameters": "scale not given: the % may be the effect or the level left"}, "[5]": {"biological_target": "T2, m7GpppX diphosphatase (Homo sapiens)", "assay": "Inhibition of recombinant flag-tagged DcpS (unknown origin) decapping activity assessed as hydrolysis of m7GpppG to m7G at 1.6 nM using unlabeled cap structure as substrate after 30 secs by PEI cellulose thin-layer chromatographic assay (reference value: 62%)", "parameters": "scale not given: the % may be the effect or the level left"}, "[6]": {"biological_target": "T2, m7GpppX diphosphatase (Homo sapiens)", "assay": "Binding affinity to recombinant human N-terminal GST-tagged DcpS expressed in baculovirus-infected Sf9 insect cells at 100 nM after 90 mins in presence of [125I]-streptavidin by microarray assay", "settings": "tested as the 125I-labelled form"}, "m7GpppX diphosphatase [7]": {"biological_target": "T1, m7GpppX diphosphatase", "assay": "Inhibition of DcpS in human SMN2 promoter driven mouse NSC-34 cell lysate assessed as increase in SMN2 expression after 18 hrs by beta-lactamase reporter gene assay"}, "m7GpppX diphosphatase [8]": {"biological_target": "T3, m7GpppX diphosphatase (Homo sapiens, UniProt Q96C86)", "T3 sequence (Q96C86 whole entry)": "T2 sequence (whole entry)", "assay": "Inhibition of recombinant flag-tagged DcpS (unknown origin) decapping activity assessed as reduction in hydrolysis of m7GpppG to m7G using unlabeled cap structure as substrate after 30 secs by PEI cellulose thin-layer chromatographic assay"}, "Mus musculus [9]": {"tested_on": "Mus musculus", "assay": "Induction in delay of onset of body mass loss in timed-pregnant SMNdelta7 carrier mouse prenatal dams at 3 mg/kg/day administered orally beginning at embryonic day 11.5 continued through birth and once the pups were born", "format": "functional"}, "Brain [10]": {"tested_on": "Brain", "assay": "Drug level in fetal brain extracts isolated from timed-pregnant SMNdelta7 carrier mouse prenatal dams administered orally beginning at embryonic day 11.5 for 5 days by LC-MS-MS analysis", "format": "ADME, tissue-based", "settings": "in vivo, po, 120 h"}, "Mus musculus [11]": {"tested_on": "Mus musculus", "assay": "Increase in Smn promoter activity in spinal cord extracts isolated from Smn knockout mouse containing LacZ:NeoR cassette inserted into mouse Smn exon 2A assessed as optimal effective dose administered orally beginning at PND04 for 5 days by beta-galactosidase light chemiluminescent reporter gene assay", "format": "functional"}, "Mus musculus [12]": {"tested_on": "Mus musculus", "assay": "Increase in SMN protein levels in spinal cord extracts isolated from SMNdelta7 SMA mouse model at 3 mg/kg/day administered orally beginning at PND04 for 5 days by immunoblot analysis relative to SMNdelta7 carrier mouse", "format": "functional"}, "Brain [13]": {"tested_on": "Brain", "assay": "Drug uptake in brain of SMNdelta7 carrier mouse […] at 0.1 to 30 mg/kg/day administered orally beginning at PND04 for 5 days", "format": "ADME, organism-based", "settings": "in vivo, po, 120 h"}, "Mus musculus [14]": {"tested_on": "Mus musculus", "assay": "Toxicity in SMNdelta7 carrier mouse assessed as adverse events at 0.1 to 30 mg/kg/day administered orally beginning at PND04 for 5 days", "format": "organism-based", "settings": "in vivo, po, 120 h"}, "Mus musculus [15]": {"tested_on": "Mus musculus", "assay": "Increase in Smn promoter activity in forebrain extracts isolated from Smn knockout mouse containing LacZ:NeoR cassette inserted into mouse Smn exon 2A assessed as optimal effective dose administered orally beginning at PND04 for 5 days by beta-galactosidase light chemiluminescent reporter gene assay", "format": "functional"}, "Mus musculus [16]": {"tested_on": "Mus musculus", "assay": "Increase in SMN protein levels in spinal cord extracts isolated from SMNdelta7 SMA mouse model at 3 mg/kg/day administered orally beginning at PND04 for 5 days by immunoblot analysis", "format": "functional"}, "Mus musculus [17]": {"tested_on": "Mus musculus", "assay": "Induction in delay of onset of body mass loss in timed-pregnant SMNdelta7 carrier mouse prenatal dams at 3 mg/kg/day administered orally only during prenatal period", "format": "functional"}, "Mus musculus [18]": {"tested_on": "Mus musculus", "assay": "Effect on life span of SMNdelta7 SMA mouse model assessed as survival at 3 mg/kg/day administered orally on onset of motor neuron loss at PND09, continued for duration of their lives by Kaplan-Meier plot method (reference value: 14 +/- 0.4 day)", "format": "functional"}, "Mus musculus [19]": {"tested_on": "Mus musculus", "assay": "Induction in delay of onset of body mass loss in SMNdelta7 SMA mouse model at 3 mg/kg/day administered orally beginning at PND04, continued for duration of their lives by Kaplan-Meier plot method (reference value: 11.1 +/- 0.3 day)", "format": "functional"}, "Mus musculus [20]": {"tested_on": "Mus musculus", "assay": "Increase in life span of SMNdelta7 SMA mouse model at 3 mg/kg/day administered orally beginning at PND04, continued for duration of their lives by Kaplan-Meier plot method relative to untreated control", "format": "functional"}, "Mus musculus [21]": {"tested_on": "Mus musculus", "assay": "Increase in life span of timed-pregnant SMNdelta7 carrier mouse prenatal dams at 3 mg/kg/day administered orally beginning at embryonic day 11.5 continued through birth and once the pups were born", "format": "functional"}, "Mus musculus [22]": {"tested_on": "Mus musculus", "assay": "Increase in life span of timed-pregnant SMNdelta7 carrier mouse prenatal dams at 3 mg/kg/day administered orally beginning at embryonic day 11.5 continued after birth (reference value: 13.3 +/- 0.6 day)", "format": "functional"}}, "note": "Activity calls are given as the source filed them. The calls are words filed in the database; no cut-off is given here.", "data": [{"smiles": "Cn1ccnc1CN1CCC(COc2cccc3nc(N)nc(N)c23)CC1", "values": [{"measurement": "EC50", "setting": "m7GpppX diphosphatase [1]", "value": 0.108, "unit": "µM"}]}, {"smiles": "C[n+]1cn([C@@H]2O[C@H](COP(=O)(O)OP(=O)([O-])OP(=O)(O)OC[C@H]3O[C@@H](n4cnc5c(=O)[nH]c(N)nc54)[C@H](O)[C@@H]3O)[C@@H](O)[C@H]2O)c2nc(N)nc(O)c21", "values": [{"measurement": "Activity", "setting": "[2]", "value": 7, "unit": "%"}, {"measurement": "Activity", "setting": "[3]", "value": 46, "unit": "%"}, {"measurement": "Activity", "setting": "[4]", "value": 24, "unit": "%"}, {"measurement": "Activity", "setting": "[5]", "value": 55, "unit": "%"}]}, {"smiles": "Nc1nc(N)c2c(OCC3CCN(C(=O)c4cccc(I)c4)CC3)cccc2n1", "values": [{"measurement": "Activity", "setting": "[6]", "value": "Active"}, {"measurement": "EC50", "setting": "m7GpppX diphosphatase [7]", "value": 0.036, "unit": "µM"}]}, {"smiles": "Nc1nc(N)c2c(OCC3CCN(CC(F)(F)F)CC3)cccc2n1", "values": [{"measurement": "EC50", "setting": "m7GpppX diphosphatase [1]", "value": 0.223, "unit": "µM"}]}, {"smiles": "C[n+]1cn([C@@H]2O[C@H](COP(=O)(O)OP(=O)([O-])OP(=O)(O)OC[C@H]3O[C@@H](n4cnc5c(=O)[nH]c(N)nc54)[C@H](O)[C@@H]3O)[C@@H](O)[C@H]2O)c2nc(N)[nH]c(=O)c21", "values": [{"measurement": "IC50", "setting": "m7GpppX diphosphatase [8]", "value": 0.03, "unit": "µM"}]}, {"smiles": "Nc1nc(N)c2c(OCC3CCN(CC4CCNCC4)CC3)cccc2n1", "values": [{"measurement": "EC50", "setting": "m7GpppX diphosphatase [1]", "value": 0.921, "unit": "µM"}]}, {"smiles": "Nc1nc(N)c2c(OCC3CCN(Cc4ccccc4F)CC3)cccc2n1", "values": [{"measurement": "Activity", "setting": "Mus musculus [9]", "value": 15, "unit": "%"}, {"measurement": "Drug uptake", "setting": "Brain [10]", "value": "Dose-dependent effect"}, {"measurement": "Activity", "setting": "Mus musculus [11]", "value": 3, "unit": "mg/kg/day"}, {"measurement": "Activity", "setting": "Mus musculus [12]", "value": 25, "unit": "%"}, {"measurement": "Drug uptake", "setting": "Brain [13]", "value": "Dose-dependent effect"}, {"measurement": "Activity", "setting": "Mus musculus [14]", "value": "Non-Toxic"}, {"measurement": "Activity", "setting": "Mus musculus [15]", "value": 3, "unit": "mg/kg/day"}, {"measurement": "Activity", "setting": "Mus musculus [16]", "value": 70, "unit": "%"}, {"measurement": "Activity", "setting": "Mus musculus [17]", "value": 10, "unit": "%"}, {"measurement": "Survival", "setting": "Mus musculus [18]", "value": 14.9, "unit": "days"}, {"measurement": "Activity", "setting": "Mus musculus [19]", "value": 12, "unit": "days"}, {"measurement": "Activity", "setting": "Mus musculus [20]", "value": 21, "unit": "%"}, {"measurement": "Activity", "setting": "Mus musculus [21]", "value": 30, "unit": "%"}, {"measurement": "Activity", "setting": "Mus musculus [22]", "value": 14.1, "unit": "days"}]}, {"smiles": "Nc1nc(N)c2c(OCC3CCN(c4ccccc4Cl)CC3)cccc2n1", "values": [{"measurement": "EC50", "setting": "m7GpppX diphosphatase [1]", "value": 0.795, "unit": "µM"}]}, {"smiles": "CC(=O)Nc1nc(CN2CCC(COc3cccc4nc(N)nc(N)c34)CC2)cs1", "values": [{"measurement": "EC50", "setting": "m7GpppX diphosphatase [1]", "value": 2.54, "unit": "µM"}]}]}
